Measurements taken from patent US8946299B2, “Use of calixarenes associated with an antibiotic in the treatment of bacterial infections” (Universite de Lorraine, priority 2011, dated 2015).

Tests used:
[1] = test system: ESBL-producing strain of Escherichia coli (EcR3); experiment: Chessboard technique: MICs alone and synergism of Cx1 combinations; assay type: cell-based; conditions: antibiotic used alone; second figure of the cell; n = 4
Text: (§1) Three reference strains were used, corresponding to those studied for the MICs and MBCs (Minimum Bactericidal Concentration): Escherichia coli ATCC 25922, Staphylococcus aureus ATCC 29213, Pseudomonas aeruginosa ATCC 27853. For each of these strains 3 corresponding clinical isolates were chosen, having various antibiotic-resistance profiles, routinely used in standard fashion: • EcR1, EcR2, EcR3; • SaR1, SaR3, SaR4; • PaR2, PaR3, PaR5.
(§2) 1.3. Procedure: Chessboard Technique
(§3) The bacterial suspension is transferred to a 15 mL Falcon tube, centrifuged for 10 min at 4500 g, then the pellet is re-suspended in 1 mL of sterile distilled water. Suitable dilutions are then prepared in order to obtain a bacterial inoculum between 5·10^5 and 5·10^6 CFU/mL.
(§4) The MICs of the antibiotics were previously determined for each strain, by the method of microdilution in a liquid medium (CLSI (Clinical and Laboratory Standards Institute), 2003).
(§5) The same procedure is followed for the Cx1. […] Thus 64 ATB/Cx1 combinations are obtained.
(§6) The final volume contained in each of the wells must be 100 μL. Two controls must be present on each plate: • column 1 and 12: medium control • column 2 and 11: medium+bacteria control
(§7) Cx1: […] in the wells of […], starting with the lowest concentration.
(§8) ATB: 25 μL in the wells of rows H to A (columns 3 to 11), starting with the lowest concentration.
(§9) 50 μL in each of the wells of columns 2 to 11.
(§10) D2: Reading the Turbidity at 540 Nm.
(§11) The FIC (Fractional Inhibitory Concentration Index) value is determined by the following formula:
(§12) [formula] MICA in combination MICA alone MICB in combination MICB alone
(§13) When FIC≦0.5, there is a synergistic effect between antibiotic A and antibiotic B.
(§14) When 0.5<FIC≦1, there is an additive effect between antibiotic A and antibiotic B.
(§15) When 1<FIC≦4, there is an indifferent effect between antibiotic A and antibiotic B.
(§16) When FIC>4, there is an antagonistic effect between antibiotic A and antibiotic B.
(§17) For each strain and each antibiotic/Cx1 combination, the experiments were repeated a minimum of 3 times.

[2] = test system: Pseudomonas aeruginosa strain ATCC 27853 (wild type); experiment: as above; assay type: cell-based; conditions: antibiotic used alone; second figure of the cell; n = 4
Text: as §1, §2, §3, §4, §5, §6, §7, §8, §9, §10, §11, §12, §13, §14, §15, §16, §17

[3] = test system: Pseudomonas aeruginosa strain having a resistance to β-lactams (including the carbapenems), aminoglycosides, the trimethoprim-sulphamethoxazole combination and …; experiment: as above; assay type: cell-based; conditions: antibiotic used alone; second figure of the cell; n = 4
Text: as §1, §2, §3, §4, §5, §6, §7, §8, §9, §10, §11, §12, §13, §14, §15, §16, §17

[4] = test system: cephalosporinase-hyperproducing strain of Escherichia coli (EcR2); experiment: as above; assay type: cell-based; conditions: antibiotic used alone; second figure of the cell; n = 4
Text: as §1, §2, §3, §4, §5, §6, §7, §8, §9, §10, §11, §12, §13, §14, §15, §16, §17

[5] = test system: mucoid strain of Pseudomonas aeruginosa having a resistance to rifampicin and the trimethoprim-sulphamethoxazole combination (PaR5); experiment: as above; assay type: cell-based; conditions: antibiotic used alone; second figure of the cell; n = 4
Text: as §1, §2, §3, §4, §5, §6, §7, §8, §9, §10, §11, §12, §13, §14, §15, §16, §17

[6] = test system: Pseudomonas aeruginosa strain having a resistance to β-lactams, the trimethoprim-sulphamethoxazole combination and fosfomycin (PaR2); assay type: cell-based; conditions: antibiotic used alone; second figure of the cell; n = 4
Text: as §1, §2, §3, §4, §5, §6, §7, §8, §9, §10, §11, §12, §13, §14, §15, §16, §17

[7] = test system: EcR1: Penicillinase-Producing Escherichia coli without Associated Resistance; experiment: Antibiogram, MIC by the VITEK 2 system; assay type: cell-based; conditions: Table A1, category from MIC
Description: 5. Identification and Antibiogram 5.1 EcR1: Penicillinase-Producing Escherichia coli without Associated Resistance
The bacterial and antibiogram identification is carried out by the VITEK 2 system (bioMérieux) and by the disk diffusion technique.

[8] = test system: EcR2: Cephalosporinase-Hyperproducing Escherichia coli; experiment: Antibiogram by the disk diffusion technique; assay type: cell-based; conditions: Table B2; strain EcR2; diameters
Description: 5.2 EcR2: Cephalosporinase-Hyperproducing Escherichia coli Having an Associated Resistance to the Aminoglycosides, Quinolones and the Trimethoprim-Sulphamethoxazole Combination
The bacterial and antibiogram identification is carried out by the VITEK 1 system (bioMérieux) and by the disk diffusion technique

[9] = test system: Escherichia coli, Staphylococcus aureus and Pseudomonas aeruginosa strains; experiment: Chessboard technique, summary over all strains and combinations tested; assay type: cell-based
Text: as §1, §2
The FIC (Fractional Inhibitory Concentration Index) value is determined by the following formula: […]
as §17

[10] = test system: SaR4: Meticillin-Resistant Staphylococcus aureus; experiment: Antibiogram by the disk diffusion technique; assay type: cell-based; conditions: Table F2; strain SaR4; diameters
Description: 5.6 SaR4: Meticillin-Resistant Staphylococcus aureus Having an Associated Resistance to the Aminoglycosides, Fluoroquinolones, Macrolides-Lincosamines-Synergistins and Ofloxacin The bacterial and antibiogram identification is carried out by the VITEK 2 system (bioMérieux) and by the disk diffusion technique
5.7 PaR2: Pseudomonas aeruginosa Having an Associated Resistance to the β-Lactams, the Trimethoprim-Sulphamethoxazole Combination and Fosfomycin The bacterial and antibiogram identification is carried out by the VITEK 2 system (bioMérieux) and by the disk diffusion technique

[11] = test system: PaR5: Pseudomonas aeruginosa; experiment: Antibiogram by the disk diffusion technique; assay type: cell-based; design: unit not given here; conditions: Table I1; strain PaR5
[12] = test system: Staphylococcus aureus strain ATCC 29213 (wild type); experiment: Chessboard technique: MICs alone and synergism of Cx1 combinations; assay type: cell-based; conditions: antibiotic used alone; second figure of the cell; n = 4
Text: as §1, §2, §3, §4, §5, §6, §7, §8, §9, §10, §11, §12, §13, §14, §15, §16, §17

[13] = test system: MRSA strain having a resistance to the aminoglycosides and fluoroquinolones (SaR3); experiment: as above; assay type: cell-based, Staphylococcus aureus; conditions: antibiotic used alone; second figure of the cell; n = 4
Text: as §1, §2, §3, §4, §5, §6, §7, §8, §9, §10, §11, §12, §13, §14, §15, §16, §17

[14] = test system: MRSA strain having a resistance to the aminoglycosides, fluoroquinolones, macrolides-lincosamides-synergistins and ofloxacin (SaR4); experiment: as above; assay type: cell-based, Staphylococcus aureus; conditions: antibiotic used alone; second figure of the cell; n = 4
Text: as §1, §2, §3, §4, §5, §6, §7, §8, §9, §10, §11, §12, §13, §14, §15, §16, §17

[15] = test system: MRSA strain without associated resistance (SaR1); experiment: as above; assay type: cell-based, Staphylococcus aureus; conditions: antibiotic used alone; second figure of the cell; n = 4
Text: as §1, §2, §3, §4, §5, §6, §7, §8, §9, §10, §11, §12, §13, §14, §15, §16, §17

[16] = test system: SaR1: Meticillin-Resistant Staphylococcus aureus without Associated Resistance; experiment: Antibiogram by the VITEK 2 system; assay type: cell-based; conditions: Table D1; strain SaR1
Description: 5.4 SaR1: Meticillin-Resistant Staphylococcus aureus without Associated Resistance
The bacterial and antibiogram identification is carried out by the VITEK 2 system (bioMérieux)
February 2006: Detection of the gene mecA by the PCR technique: POSITIVE Expert finding July 2006: totally typical phenotype: modification of the PLPs The fluctuations relative to the type of associated resistance for certain strains between Tables D1 and D2 are due to the development of the French (CA-SFM), European (EUCAST) and American (CLSI) recommendations for the categorization of bacterial strains. 5.5 SaR3: Meticillin-Resistant Staphylococcus aureus Having an Associated Resistance to the Aminoglycosides and Fluoroquinolones The bacterial and antibiogram identification is carried out by the VITEK 2 system (bioMérieux) and by the disk diffusion technique

[17] = test system: SaR3: Meticillin-Resistant Staphylococcus aureus; experiment: Antibiogram by the disk diffusion technique; assay type: cell-based; conditions: Table E1; strain SaR3

Structure (SMILES): CC(C)(O/N=C(\C(=O)N[C@@H]1C(=O)N2C(C(=O)[O-])=C(C[n+]3ccccc3)CS[C@H]12)c1csc(N)n1)C(=O)O [Ceftazidime]
- Initial MICs (antibiotic) [1]: 1 mg/L
- MIC (antibiotic) [2]: 4 µg/mL
- MIC (antibiotic) [3]: 16 µg/mL
- Initial MICs (antibiotic) [4]: 8 mg/L
- MIC (antibiotic) [5]: 8 µg/mL
- MIC (antibiotic) [6]: 8 µg/mL
- Results (MIC) [7]: Susceptible
- diameter in mm [8]: 20 mm
- nature of the interaction between Cx1 and the antibiotic [9]: synergism

Structure (SMILES): NC[C@H]1O[C@H](O[C@H]2[C@H](O)[C@@H](O[C@H]3O[C@H](CO)[C@@H](O)[C@H](N)[C@H]3O)[C@H](N)C[C@@H]2N)[C@H](O)[C@@H](O)[C@@H]1O [Kanamycin]
- diameter in mm [10]: 7 mm

Structure (SMILES): CCn1cc(C(=O)O)c(=O)c2cc(F)c(N3CCNCC3)cc21 [Norofloxacin]
- Diameter [11]: 17

Structure (SMILES): CC1(C)S[C@@H]2[C@H](NC(=O)Cc3ccccc3)C(=O)N2[C@H]1C(=O)O [Penicillin G]
- Initials MIC (antibiotic) [12]: 1 µg/mL
- MIC (antibiotic) [13]: 0.5 µg/mL
- MIC (antibiotic) [14]: 4 µg/mL
- MIC (antibiotic) [15]: 0.5 µg/mL
- Diameter [16]: 28
- Diameter [17]: 26
